Assay results taken from patent US11135186B2, “Regulators of the endoplasmic reticulum proteostasis network” (The Scripps Research Institute, priority 2015, dated 2021).

Legend:
[1] = system: XBP1-RLuc reporter (IRE1/XBP1s arm of the UPR); assay: XBP1-RLuc splicing reporter, 1536-well screen in HEK293T-Rex cells; type: cell-based; settings: % Tg (500 nM) activation, triplicate confirmation screen at 6.8 μM, 18 h
From the text: To evaluate the selectivity of our screening hits for ATF6, we employed an alternative luciferase reporter to measure activation of the IRE1/XBP1s arm of the UPR. This reporter contains Renilla luciferase (RLuc) expressed out of frame downstream of the XBP1 splice site, preventing RLuc translation in the absence of stress (FIG. 2b)^36,37. In response to IRE1 activation, the 26-nt XBP1 intron is removed, producing a frame shift that allows for RLuc translation and activity. Robust dose-dependent activation of the XBP1-RLuc reporter upon addition of the ER stressors Tg and Tm was confirmed in HEK293T-Rex cells stably expressing the XBP1-RLuc reporter, producing a Z′ score of 0.75 for Tg.
(§1) HEK293T-Rex cells incorporating either the ERSE-FLuc or XBP1s-RLuc reporters were collected by trypsinization and resuspended at a density of 500,000 cells per mL. The assay was started by dispensing 5 μL of cell suspension into each well of white, solid-bottom 1536-well plates using a flying reagent dispenser (FRD) and placed into an online incubator 3 h. Cells were then treated with 34 nL/well of either test compounds to give final concentrations of 6.8 μM, DMSO (Low control, final concentration 0.68%, 0% activation) or […] of Delta-7 thapsigargin (High control, final concentration 500 nM, 100% activation). Plates were incubated for 18 h at 37° C., removed from the incubator and equilibrated to room temperature for 10 min. Luciferase activity was detected by addition of 5 μL of ONE-Glo reagent (Promega) to each well. After a 10 min incubation time, light emission was measured with the ViewLux reader (PerkinElmer). The percent activation of each test compound was calculated as follows: % Activation=100*(Test Compound−Median Low Control)/(Median High Control ˜Median Low Control).

[2] = system: ERSE-FLuc reporter (ATF6 arm of the UPR); assay: ERSE-FLuc reporter, 1536-well confirmation screen in HEK293T-Rex cells; type: cell-based; settings: % Tg (500 nM) activation, triplicate confirmation screen at 6.8 μM, 18 h
From the text: We employed a transcriptional reporter that quantifies activation of the ATF6 arm of the UPR in HEK293T-Rex cells. This reporter contains a fragment of the UPR-inducible BiP promoter, including three ER stress-responsive elements (ERSEs), driving expression of firefly luciferase (ERSE-FLuc; FIG. 1a)^34. We previously employed this reporter for a small-scale screen using the 1280 member compound Library of Pharmacologic Active Compounds (LoPAC) to find small molecules that activate the UPR^8. […] Optimization and miniaturization of this assay to 1536-well format was performed at the Scripps Research Institute Molecule Screening Center (SRIMSC).
as §1

[3] = system: BiP expression in ALMC-2 cells; assay: BiP qPCR in ALMC-2 cells; type: cell-based, human; settings: 10 μM, 6 h
Description: Cells were treated as described at 37° C., washed with Dulbecco's phosphate-buffered saline (Gibco), and then RNA was extracted using the RNeasy Mini Kit (Qiagen). qPCR reactions were performed on cDNA prepared from 500 ng of total cellular RNA using the QuantiTect Reverse Transcription Kit (Qiagen). The FastStart Universal SYBR Green Master Mix (Roche), cDNA, and appropriate human primers^4 or mouse primers (BiP; […] (SEQ ID NO: 5) and […] (SEQ ID NO: 6) purchased from Integrated DNA Technologies were used for amplifications (45 cycles of 1 min at 95° C., 10 s at 95° C., 30 sec at 60° C.) in an ABI 7900HT Fast Real Time PCR machine. Primer integrity was assessed by a thermal melt to confirm homogeneity and the absence of primer dimers. Transcripts were normalized to the housekeeping gene Rplp2 and all measurements were performed in triplicate. Data were analyzed using the RQ Manager and DataAssist 2.0 softwares (ABI).

[4] = system: ERSE-FLuc reporter (ATF6 arm of the UPR); assay: ERSE-FLuc reporter, 96-well, HEK293T-Rex cells (SAR and S1P inhibition); type: cell-based; settings: for ERSE reporter activity relative to 147: HEK293T-Rex, 10 μM
Description: HEK293T-Rex cells incorporating the ERSE-FLuc reporter and HEK293^DAX cells were plated approximately 20,000 cells/well in flat-bottomed, black 96-well assay plates (Costar, Corning, Inc.) overnight prior to compound administration. Cells were treated with compounds as described for 12-18 h then the plates were equilibrated to room temperature and 50 μL of SteadyLite (PerkinElmer) was added to each well. Luminescence activity was measured in a Safire II microplate reader with a 1000 ms integration time.

[5] = system: ^FTTTR^WT; assay: [35S] metabolic labeling, secretion of flag-tagged TTR^WT from HepG2^ATF6 cells; type: cell-based; settings: 15 h pretreatment, 10 μM compound or 1 μM Tg, 4 h chase
Description: (§2) HepG2 cells or HEK293T cells plated on poly-D-lysine coated plates were metabolically labeled in DMEM-Cys/-Met (CellGro) supplemented with glutamine, penicillin/streptomycin, dialyzed fetal bovine serum, and EasyTag EXPRESS^35S Protein Labeling Mix (Perkin Elmer) for 30 min. Cells were washed twice with complete media and incubated in prewarmed DMEM for the indicated times. Media or lysates were harvested at the indicated times. Lysates were prepared in RIPA buffer with fresh protease inhibitor cocktail (Roche). FLAG tagged TTR variants or ALLC were immunopurified using M1 anti-FLAG agarose beads (Sigma-Aldrich) and washed three times with RIPA buffer. The immunoisolates were then eluted by boiling in Laemmli buffer and separated on SDS-PAGE. For total secreted media, 15 uL aliquots from media incubated for 4 hrs on pulsed cells were run on a SDS-PAGE. The gels were then dried, exposed to phosphorimager plates (GE Healthcare), and imaged with a Typhoon imager. Band intensities were quantified by densitometry in ImageQuant. Fraction secreted was calculated using the equation: fraction secreted=[extracellular [^35S]-LC signal at t=t/(extracellular [^35S]-LC signal at t=0+intracellular [^35S]-LC signal at t=0)]. Fraction remaining was calculated using the equation: [(extracellular [^35S]-LC signal at t=t+intracellular [^35S]-LC signal at t=t)/(extracellular [^35S]-LC signal at t=0+ intracellular [^35S]-LC signal at t=0)].

[6] = system: endogenous secretory proteome of HepG2^ATF6 cells; assay: [35S] metabolic labeling, total secreted protein from HepG2^ATF6 cells; type: cell-based; settings: 15 h pretreatment, 10 μM compound or 1 μM Tg, 4 h chase
Description: as §2

[7] = system: HEK293T-Rex cells; assay: mRNA-Seq transcriptional profiling and geneset analysis in HEK293T-Rex cells; type: cell-based, human; settings: 6 h, compounds 10 μM, Tg 1 μM
Description: HEK293T-Rex and HEK293^DAX cells in 12-well plates were treated for 6 h with vehicle, 1 μM Tg, 10 μM TMP (in HEK293^DAX), or 10 μM 132, 147 or 263 in biological triplicate at 37° C. Cells were harvested, and RNA was extracted using the RNeasy Mini Kit (Qiagen). Total RNA was quantified using NanoDrop (ND-1000). Samples were run on the Illuina HiSeq system.
Single end, 100 bp-long reads from RNA-Seq experiments were aligned to the GRCh37.p13 human genome reference assembly using SeqMan NGen 11.2.1 (DNAStar, Inc.). The assembly data were then imported into ArrayStar with QSeq (DNAStar, Inc.) to quantify the gene expression levels. The sequence counts were normalized to reads per kilobase per million (RPKM) after filtering out non-mRNA sequence features. The statistical significance of the difference between the expression levels of a gene under different conditions was assessed using a Student's t-test with the Benjamini-Hochberg multiple testing correction.
ATF6- and XBP1s-selective target genes were identified from transcriptional profiles of HEK293D^X cells following stress-independent activation of TMP-dependent DHFR-ATF6 and/or tetracycline inducible XBP1s, as previously described^4. PERK-selective target genes were identified from^8. Only ATF6-, XBP1s- or PERK-selective genes induced >1.5 fold in Tg-treated samples were used in this analysis. The log transformed fold-increase of these target genes in HEK293T-Rex cells treated with the respective ER proteostasis regulators were then normalized to the log transformed fold increase of these genes induced by Tg treatment. The plots shown in FIG. 5b-e were prepared as box and whisker plots using Kaleidograph. Differential activation of the ATF6, XBP1s, and PERK genesets was assessed by one-way ANOVA and significance of pairwise comparison confirmed by unpaired t-test. An analogous strategy was employed to prepare the heat map using transcriptional data from the MGE analysis.

[8] = system: ^FTTTR^A25T; assay: [35S] metabolic labeling, secretion of flag-tagged TTR^A25T from HepG2^ATF6 cells; type: cell-based; settings: 15 h pretreatment, 10 μM compound or 1 μM Tg, 4 h chase
Description: as §2

SMILES: CCCCNNC(=O)c1ccc(Br)cc1 [Compound 5]
- % XBP1-RLuc activation [1]: 9.1 ± 0.7%
- % ERSE-FLuc activation [2]: 60.9 ± 6.0%

SMILES: CCCc1cc(C(=O)Nc2cc(C)ccc2O)no1 [Compound 145]
- % XBP1-RLuc activation [1]: 24.5 ± 4.7%
- expression of the ATF6 target gene BiP in ALMC-2 cells [3]: induced
- % ERSE-FLuc activation [2]: 83.4 ± 6.3%

SMILES: O=C1N/C(=C\c2ccc(O)cc2)C(=O)N1c1cccc(Cl)c1 [Compound 238]
- % ERSE-FLuc activation [2]: 68.2 ± 5.7%

SMILES: Cc1cc(C)c(OCC(=O)N/N=C/c2ccc(Cl)c(O)c2)c(Br)c1 [Compound 258]
- % XBP1-RLuc activation [1]: 32.6 ± 1.0%
- % ERSE-FLuc activation [2]: 28.6 ± 6.1%

SMILES: COc1ccc(CCC(=O)Nc2cc(C)ccc2O)cc1 [RP14]
- ERSE reporter activity relative to 147 [4]: slightly decrease or do not change

SMILES: COc1ccccc1CCC(=O)Nc1cc(C)ccc1O [RP23]
- ERSE reporter activity relative to 147 [4]: slightly decrease or do not change

SMILES: Cc1ccc(O)c(NC(=O)CCc2ccccc2F)c1 [RP24]
- ERSE reporter activity relative to 147 [4]: increase

SMILES: Cc1ccc(O)c(NC(=O)CCc2ccccc2C)c1 [RP25]
- ERSE reporter activity relative to 147 [4]: slightly decrease or do not change

SMILES: Cc1ccc(O)c(NC(=O)CCc2ccccc2Cl)c1 [RP26]
- ERSE reporter activity relative to 147 [4]: increase

SMILES: Cc1ccc(O)c(NC(=O)CCc2c(Cl)cccc2Cl)c1 [RP27]
- ERSE reporter activity relative to 147 [4]: decreases activity

SMILES: C/C=C(/C)C(=O)O[C@H]1C(C)=C2[C@H]([C@@H]1OC(=O)CCCCCCC)[C@@](C)(OC(C)=O)C[C@H](OC(=O)CCC)[C@@]1(O)[C@H]2OC(=O)[C@@]1(C)O [Tg, thapsigargin, reference compound]
- ^FTTTR^WT secretion (in words) [5]: reduced
- accumulation of [35S]-labeled protein in media (total secreted proteome) [6]: significantly impaired
- BiP mRNA-Seq fold change (relative to Vh) ([7]; ATF6-selective gene): 11.6 fold
- GRP94 mRNA-Seq fold change (relative to Vh) ([7]; ATF6-selective gene): 4.2 fold
- SEL1L mRNA-Seq fold change (relative to Vh) ([7]; ATF6-selective gene): 7.6 fold
- DNAJB1 mRNA-Seq fold change (relative to Vh) ([7]; HSF1 target gene): 0.5 fold
- HSPA1A mRNA-Seq fold change (relative to Vh) ([7]; HSF1 target gene): 0.3 fold
- HSPA8 mRNA-Seq fold change (relative to Vh) ([7]; HSF1 target gene): 0.3 fold
- ASNS mRNA-Seq fold change (relative to Vh) ([7]; PERK target gene): 4.2 fold
- DDIT3 (CHOP) mRNA-Seq fold change (relative to Vh) ([7]; PERK target gene): 13.2 fold
- TrIB3 mRNA-Seq fold change (relative to Vh) ([7]; PERK target gene): 8.2 fold
- ERdj3 mRNA-Seq fold change (relative to Vh) ([7]; XBP1s- or ATF6-target gene): 4.0 fold
- HYOU1 mRNA-Seq fold change (relative to Vh) ([7]; XBP1s- or ATF6-target gene): 6.1 fold
- p58IPK mRNA-Seq fold change (relative to Vh) ([7]; XBP1s- or ATF6-target gene): 3.9 fold
- DNAJC10 mRNA-Seq fold change (relative to Vh) ([7]; XBP1s-selective gene): 2.1 fold
- HSPA13 mRNA-Seq fold change (relative to Vh) ([7]; XBP1s-selective gene): 4.2 fold
- SEC24D mRNA-Seq fold change (relative to Vh) ([7]; XBP1s-selective gene): 6.6 fold
- ^FTTTR^A25T secretion (in words) [8]: reduced
- ERSE-FLuc activation on co-addition of the S1P inhibitor PF-429242 ([4]; PF-429242 10 μM, 18 h, regulators 10 μM, Tg 500 nM): impeded
